Results as given in ChEMBL document CHEMBL5724914, “Linking interpersonal differences in gut microbiota composition and drug biotransformation activity” (2024).

Details: human gut metagenome, 24 h, 2 µM
Further: call rule not given here.

| Bacterial Biotransformation | Compound |
| --- | --- |
| Compound metabolized | Cc1ccc(S(=O)(=O)NC(=O)NN2CCCCCC2)cc1 [TOLAZAMIDE] |
| Compound NOT metabolized | Fc1ccc([C@@H]2CCNC[C@H]2COc2ccc3c(c2)OCO3)cc1 [PAROXETINE] |

| Compound | Bacterial Biotransformation |
| --- | --- |
| CN(C)C(=O)C(CCN1CCC(O)(c2ccc(Cl)cc2)CC1)(c1ccccc1)c1ccccc1 [LOPERAMIDE] | Compound metabolized |

Test: (§1) The drug is tested on Z-004 corresponding to metagenome with ENA study accession number: PRJEB37062 and ENA sample accession number: ERS12561804 for biotransformation under anaerobic condition. The drug concentrations were measured over 9 timepoints collected between 0 and 24 hours of incubation by liquid-chromatography-coupled mass spectrometry (LC–MS)
Details: 2 µM

| Bacterial Biotransformation | Compound |
| --- | --- |
| Compound metabolized | Cc1ccc(S(=O)(=O)NC(=O)NN2CCCCCC2)cc1 [TOLAZAMIDE] |
| Compound NOT metabolized | Fc1ccc([C@@H]2CCNC[C@H]2COc2ccc3c(c2)OCO3)cc1 [PAROXETINE] |

| Compound | Bacterial Biotransformation |
| --- | --- |
| CN(C)C(=O)C(CCN1CCC(O)(c2ccc(Cl)cc2)CC1)(c1ccccc1)c1ccccc1 [LOPERAMIDE] | Compound metabolized |

Test: (§2) The drug is tested on WLS-170 corresponding to human gut metagenome with ENA study accession number: PRJEB37062 and ENA sample accession number: ERS12561762 for biotransformation under anaerobic condition. The drug concentrations were measured over 9 timepoints collected between 0 and 24 hours of incubation by liquid-chromatography-coupled mass spectrometry (LC–MS)
Details: 2 µM

| Bacterial Biotransformation | Compound |
| --- | --- |
| Compound metabolized | Cc1ccc(S(=O)(=O)NC(=O)NN2CCCCCC2)cc1 [TOLAZAMIDE] |
| Compound metabolized | Fc1ccc([C@@H]2CCNC[C@H]2COc2ccc3c(c2)OCO3)cc1 [PAROXETINE] |

| Compound | Bacterial Biotransformation |
| --- | --- |
| CN(C)C(=O)C(CCN1CCC(O)(c2ccc(Cl)cc2)CC1)(c1ccccc1)c1ccccc1 [LOPERAMIDE] | Compound metabolized |

Details: human gut metagenome, 24 h, 2 µM
Remark: another data set of the same source

| Bacterial Biotransformation | Compound |
| --- | --- |
| Compound metabolized | Cc1ccc(S(=O)(=O)NC(=O)NN2CCCCCC2)cc1 [TOLAZAMIDE] |
| Compound NOT metabolized | Fc1ccc([C@@H]2CCNC[C@H]2COc2ccc3c(c2)OCO3)cc1 [PAROXETINE] |

| Compound | Bacterial Biotransformation |
| --- | --- |
| CN(C)C(=O)C(CCN1CCC(O)(c2ccc(Cl)cc2)CC1)(c1ccccc1)c1ccccc1 [LOPERAMIDE] | Compound metabolized |

Details: human gut metagenome, 24 h, 2 µM
Remark: another data set of the same source

| Bacterial Biotransformation | Compound |
| --- | --- |
| Compound NOT metabolized | Cc1ccc(S(=O)(=O)NC(=O)NN2CCCCCC2)cc1 [TOLAZAMIDE] |
| Compound NOT metabolized | Fc1ccc([C@@H]2CCNC[C@H]2COc2ccc3c(c2)OCO3)cc1 [PAROXETINE] |

| Compound | Bacterial Biotransformation |
| --- | --- |
| CN(C)C(=O)C(CCN1CCC(O)(c2ccc(Cl)cc2)CC1)(c1ccccc1)c1ccccc1 [LOPERAMIDE] | Compound metabolized |

Details: human gut metagenome, 24 h, 2 µM
Remark: another data set of the same source

| Bacterial Biotransformation | Compound |
| --- | --- |
| Compound metabolized | Cc1ccc(S(=O)(=O)NC(=O)NN2CCCCCC2)cc1 [TOLAZAMIDE] |
| Compound metabolized | Fc1ccc([C@@H]2CCNC[C@H]2COc2ccc3c(c2)OCO3)cc1 [PAROXETINE] |

| Compound | Bacterial Biotransformation |
| --- | --- |
| CN(C)C(=O)C(CCN1CCC(O)(c2ccc(Cl)cc2)CC1)(c1ccccc1)c1ccccc1 [LOPERAMIDE] | Compound metabolized |

Test: as §1, with “Z-027” for “Z-004”, “ERS12561826” for “ERS12561804”
Details: 2 µM

| Bacterial Biotransformation | Compound |
| --- | --- |
| Compound NOT metabolized | Cc1ccc(S(=O)(=O)NC(=O)NN2CCCCCC2)cc1 [TOLAZAMIDE] |
| Compound NOT metabolized | Fc1ccc([C@@H]2CCNC[C@H]2COc2ccc3c(c2)OCO3)cc1 [PAROXETINE] |

| Compound | Bacterial Biotransformation |
| --- | --- |
| CN(C)C(=O)C(CCN1CCC(O)(c2ccc(Cl)cc2)CC1)(c1ccccc1)c1ccccc1 [LOPERAMIDE] | Compound metabolized |

Details: human gut metagenome, 24 h, 2 µM
Remark: another data set of the same source

| Bacterial Biotransformation | Compound |
| --- | --- |
| Compound metabolized | Cc1ccc(S(=O)(=O)NC(=O)NN2CCCCCC2)cc1 [TOLAZAMIDE] |
| Compound metabolized | Fc1ccc([C@@H]2CCNC[C@H]2COc2ccc3c(c2)OCO3)cc1 [PAROXETINE] |

| Compound | Bacterial Biotransformation |
| --- | --- |
| CN(C)C(=O)C(CCN1CCC(O)(c2ccc(Cl)cc2)CC1)(c1ccccc1)c1ccccc1 [LOPERAMIDE] | Compound metabolized |

Test: as §2, with “WLS-090” for “WLS-170”, “ERS12561753” for “ERS12561762”
Details: 2 µM

| Bacterial Biotransformation | Compound |
| --- | --- |
| Compound metabolized | Cc1ccc(S(=O)(=O)NC(=O)NN2CCCCCC2)cc1 [TOLAZAMIDE] |
| Compound metabolized | Fc1ccc([C@@H]2CCNC[C@H]2COc2ccc3c(c2)OCO3)cc1 [PAROXETINE] |

| Compound | Bacterial Biotransformation |
| --- | --- |
| CN(C)C(=O)C(CCN1CCC(O)(c2ccc(Cl)cc2)CC1)(c1ccccc1)c1ccccc1 [LOPERAMIDE] | Compound metabolized |

Test: as §2, with “Z-028” for “WLS-170”, “mouse” for “human”, “ERS12561827” for “ERS12561762”
Details: 2 µM

| Bacterial Biotransformation | Compound |
| --- | --- |
| Compound metabolized | Cc1ccc(S(=O)(=O)NC(=O)NN2CCCCCC2)cc1 [TOLAZAMIDE] |
| Compound NOT metabolized | Fc1ccc([C@@H]2CCNC[C@H]2COc2ccc3c(c2)OCO3)cc1 [PAROXETINE] |

| Compound | Bacterial Biotransformation |
| --- | --- |
| CN(C)C(=O)C(CCN1CCC(O)(c2ccc(Cl)cc2)CC1)(c1ccccc1)c1ccccc1 [LOPERAMIDE] | Compound metabolized |

Test: as §2, with “Z-002” for “WLS-170”, “rabbit” for “human”, “ERS12561802” for “ERS12561762”
Details: 2 µM

| Bacterial Biotransformation | Compound |
| --- | --- |
| Compound metabolized | Cc1ccc(S(=O)(=O)NC(=O)NN2CCCCCC2)cc1 [TOLAZAMIDE] |
| Compound NOT metabolized | Fc1ccc([C@@H]2CCNC[C@H]2COc2ccc3c(c2)OCO3)cc1 [PAROXETINE] |

| Compound | Bacterial Biotransformation |
| --- | --- |
| CN(C)C(=O)C(CCN1CCC(O)(c2ccc(Cl)cc2)CC1)(c1ccccc1)c1ccccc1 [LOPERAMIDE] | Compound metabolized |

Details: human gut metagenome, 24 h, 2 µM
Remark: another data set of the same source

| Bacterial Biotransformation | Compound |
| --- | --- |
| Compound metabolized | Cc1ccc(S(=O)(=O)NC(=O)NN2CCCCCC2)cc1 [TOLAZAMIDE] |
| Compound metabolized | Fc1ccc([C@@H]2CCNC[C@H]2COc2ccc3c(c2)OCO3)cc1 [PAROXETINE] |

| Compound | Bacterial Biotransformation |
| --- | --- |
| CN(C)C(=O)C(CCN1CCC(O)(c2ccc(Cl)cc2)CC1)(c1ccccc1)c1ccccc1 [LOPERAMIDE] | Compound metabolized |

Test: as §2, with “Z-001” for “WLS-170”, “mouse” for “human”, “ERS12561801” for “ERS12561762”
Details: 2 µM

| Bacterial Biotransformation | Compound |
| --- | --- |
| Compound metabolized | Cc1ccc(S(=O)(=O)NC(=O)NN2CCCCCC2)cc1 [TOLAZAMIDE] |
| Compound NOT metabolized | Fc1ccc([C@@H]2CCNC[C@H]2COc2ccc3c(c2)OCO3)cc1 [PAROXETINE] |

| Compound | Bacterial Biotransformation |
| --- | --- |
| CN(C)C(=O)C(CCN1CCC(O)(c2ccc(Cl)cc2)CC1)(c1ccccc1)c1ccccc1 [LOPERAMIDE] | Compound metabolized |

Test: as §2, with “Z-030” for “WLS-170”, “mouse” for “human”, “ERS12561829” for “ERS12561762”
Details: 2 µM

| Bacterial Biotransformation | Compound |
| --- | --- |
| Compound NOT metabolized | Cc1ccc(S(=O)(=O)NC(=O)NN2CCCCCC2)cc1 [TOLAZAMIDE] |
| Compound NOT metabolized | Fc1ccc([C@@H]2CCNC[C@H]2COc2ccc3c(c2)OCO3)cc1 [PAROXETINE] |

| Compound | Bacterial Biotransformation |
| --- | --- |
| CN(C)C(=O)C(CCN1CCC(O)(c2ccc(Cl)cc2)CC1)(c1ccccc1)c1ccccc1 [LOPERAMIDE] | Compound NOT metabolized |

Test: as §1, with “Z-026” for “Z-004”, “ERS12561825” for “ERS12561804”
Details: 2 µM

| Bacterial Biotransformation | Compound |
| --- | --- |
| Compound NOT metabolized | Cc1ccc(S(=O)(=O)NC(=O)NN2CCCCCC2)cc1 [TOLAZAMIDE] |
| Compound NOT metabolized | Fc1ccc([C@@H]2CCNC[C@H]2COc2ccc3c(c2)OCO3)cc1 [PAROXETINE] |

| Compound | Bacterial Biotransformation |
| --- | --- |
| CN(C)C(=O)C(CCN1CCC(O)(c2ccc(Cl)cc2)CC1)(c1ccccc1)c1ccccc1 [LOPERAMIDE] | Compound NOT metabolized |

Test: as §2, with “Z-020” for “WLS-170”, “rabbit” for “human”, “ERS12561819” for “ERS12561762”
Details: 2 µM

| Bacterial Biotransformation | Compound |
| --- | --- |
| Compound NOT metabolized | Cc1ccc(S(=O)(=O)NC(=O)NN2CCCCCC2)cc1 [TOLAZAMIDE] |
| Compound NOT metabolized | Fc1ccc([C@@H]2CCNC[C@H]2COc2ccc3c(c2)OCO3)cc1 [PAROXETINE] |

| Compound | Bacterial Biotransformation |
| --- | --- |
| CN(C)C(=O)C(CCN1CCC(O)(c2ccc(Cl)cc2)CC1)(c1ccccc1)c1ccccc1 [LOPERAMIDE] | Compound metabolized |

Details: human gut metagenome, 24 h, 2 µM
Remark: another data set of the same source

| Bacterial Biotransformation | Compound |
| --- | --- |
| Compound metabolized | Cc1ccc(S(=O)(=O)NC(=O)NN2CCCCCC2)cc1 [TOLAZAMIDE] |
| Compound metabolized | Fc1ccc([C@@H]2CCNC[C@H]2COc2ccc3c(c2)OCO3)cc1 [PAROXETINE] |

| Compound | Bacterial Biotransformation |
| --- | --- |
| CN(C)C(=O)C(CCN1CCC(O)(c2ccc(Cl)cc2)CC1)(c1ccccc1)c1ccccc1 [LOPERAMIDE] | Compound metabolized |

Test: as §1, with “Z-010” for “Z-004”, “ERS12561810” for “ERS12561804”
Details: 2 µM

| Bacterial Biotransformation | Compound |
| --- | --- |
| Compound metabolized | Cc1ccc(S(=O)(=O)NC(=O)NN2CCCCCC2)cc1 [TOLAZAMIDE] |
| Compound metabolized | Fc1ccc([C@@H]2CCNC[C@H]2COc2ccc3c(c2)OCO3)cc1 [PAROXETINE] |

| Compound | Bacterial Biotransformation |
| --- | --- |
| CN(C)C(=O)C(CCN1CCC(O)(c2ccc(Cl)cc2)CC1)(c1ccccc1)c1ccccc1 [LOPERAMIDE] | Compound metabolized |

Test: as §2, with “Z-024” for “WLS-170”, “pig” for “human”, “ERS12561823” for “ERS12561762”
Details: 2 µM

| Bacterial Biotransformation | Compound |
| --- | --- |
| Compound metabolized | Cc1ccc(S(=O)(=O)NC(=O)NN2CCCCCC2)cc1 [TOLAZAMIDE] |
| Compound metabolized | Fc1ccc([C@@H]2CCNC[C@H]2COc2ccc3c(c2)OCO3)cc1 [PAROXETINE] |

| Compound | Bacterial Biotransformation |
| --- | --- |
| CN(C)C(=O)C(CCN1CCC(O)(c2ccc(Cl)cc2)CC1)(c1ccccc1)c1ccccc1 [LOPERAMIDE] | Compound metabolized |

Test: as §2, with “WLS-370” for “WLS-170”, “ERS12561793” for “ERS12561762”
Details: 2 µM

| Bacterial Biotransformation | Compound |
| --- | --- |
| Compound metabolized | Cc1ccc(S(=O)(=O)NC(=O)NN2CCCCCC2)cc1 [TOLAZAMIDE] |
| Compound metabolized | Fc1ccc([C@@H]2CCNC[C@H]2COc2ccc3c(c2)OCO3)cc1 [PAROXETINE] |

| Compound | Bacterial Biotransformation |
| --- | --- |
| CN(C)C(=O)C(CCN1CCC(O)(c2ccc(Cl)cc2)CC1)(c1ccccc1)c1ccccc1 [LOPERAMIDE] | Compound metabolized |
